ChEMBL document CHEMBL3227956 (J Med Chem, 1979)

Tests used:
Mus musculus [1] = experiment: Toxicity in mouse allografted with mouse L1210 cells assessed as survival rate at 150 mg/kg, ip administered on day 1 measured on day 30 relative to control; type: organism-based; set-up: dose 150 mg/kg, route intraperitoneal; details: in vivo
L1210 [2] = experiment: Antitumor activity against mouse L1210 cells allografted in mouse assessed as increase in survival rate at 150 mg/kg, ip administered on day 1 measured on day 30 relative to control; type: functional; details: route intraperitoneal
L1210 [3] = experiment: Antitumor activity against mouse L1210 cells allografted in mouse assessed as increase in survival rate at 62.5 mg/kg, ip administered on day 1 measured on day 30 relative to control; type: functional; details: route intraperitoneal
[4] = Hydrolytic stability in CDCl3 assessed as formation of 3-ammonio-2-bromopropyl phenylphosphonate measured within 2 hrs by NMR analysis; type: physicochemical
[5] = Hydrolytic stability in D2O/Me2SO-d6 assessed as formation of 3-ammonio-2-bromopropyl phenylphosphonate at 37 degC after 24 hrs by NMR analysis; type: physicochemical
[6] = Hydrolytic stability in deuteriochloroform; type: physicochemical
Mus musculus [7] = experiment: Toxicity in mouse allografted with mouse L1210 cells assessed as survival rate at 250 mg/kg, ip administered on day 1 measured on day 30 relative to control; type: organism-based; set-up: dose 250 mg/kg, route intraperitoneal; details: in vivo
Mus musculus [8] = experiment: Toxicity in mouse allografted with mouse L1210 cells assessed as survival rate at 500 mg/kg, ip administered on day 1 measured on day 30 relative to control; type: organism-based; set-up: dose 500 mg/kg, route intraperitoneal; details: in vivo
L1210 [9] = experiment: Antitumor activity against mouse L1210 cells allografted in mouse assessed as increase in survival rate at 500 mg/kg, ip administered on day 1 measured on day 30 relative to control; type: functional; details: route intraperitoneal
Mus musculus [10] = experiment: Toxicity in mouse allografted with mouse L1210 cells assessed as survival rate at 62.5 mg/kg, ip administered on day 1 measured on day 30 relative to control; type: organism-based; set-up: dose 62.5 mg/kg, route intraperitoneal; details: in vivo
[11] = Therapeutic index, ratio of LD50 for mouse allografted with mouse ADJ/PC6 cells to ED90 for mouse ADJ/PC6 cells allografted in mouse
W256 [12] = experiment: Cytotoxicity against rat Walker 256 cells assessed as growth inhibition in absence of microsomal activation; details: W256, read-out: ID50
ADJ/PC6 = experiment: Antitumor activity against mouse ADJ/PC6 cells allografted in mouse
W256 [13] = experiment: Cytotoxicity against rat Walker 256 cells assessed as growth inhibition in presence of microsomal activation; details: W256, read-out: ID50
[14] = Toxicity in mouse allografted with mouse ADJ/PC6 cells

Structure (SMILES): [O-][P@@+]1(Oc2ccccc2)NC[C@H](Br)CO1 (racemic)
- Activity (Mus musculus [1]): Non-toxic
- T/C (L1210 [2]): 113%

Structure (SMILES): O=P1(N2CC2)OCCCN1CCCl (stereo not drawn)
- T/C (L1210 [3]): 110%

Structure (SMILES): O=P1(c2ccccc2)NCC(Br)CO1 (stereo not drawn)
- Stability [4]: Unstable
- Stability [5]: Unstable
- Stability [6]: Stable

Structure (SMILES): [O-][P@@+]1(c2ccccc2)NC[C@@H](Br)CO1 (single isomer, unassigned; fast eluting)
- Activity (Mus musculus [7]): Non-toxic

Structure (SMILES): O=P12OCCCN1CCN2CCCl (stereo not drawn)
- Activity (Mus musculus [8]): Non-toxic
- T/C (L1210 [9]): 105%

Structure (SMILES): [O-][P@@+]1(Oc2ccccc2)NC[C@@H](Br)CO1 (single isomer, unassigned; fast eluting)
- Activity (Mus musculus [10]): Non-toxic
- T/C (L1210 [3]): 107%

Structure (SMILES): O=P1(Oc2ccccc2)NCC(Br)CO1 (stereo not drawn)
- Stability [5]: Stable

Structure (SMILES): O=P1(N(CCCl)CCCl)NCCCO1 (racemic) [CYCLOPHOSPHAMIDE ANHYDROUS]
- selectivity ratio [11]: 95
- IC50 (W256 [12]): > 500 mg/L
- ED90 (ADJ/PC6): 4.75 mg/kg
- Activity (Mus musculus [7]): Non-toxic
- IC50 (W256 [13]): 0.5 mg/L
- LD50 [14]: 450 mg/kg
